This experiment has as its system P388 leukemia ip, CD2F1 mice, survival T/C. Description: NCI In Vivo Anticancer Drug Screen. Data for tumor model P388 Leukemia (intraperitoneal) in CD2F1 (CDF1) mice. To be noted: endpoint: median survival time, higher = longer survival. A digest of the protocol: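 Mice carrying the transplanted tumor received test compound or vehicle. Survival was recorded in each group, and the value is the treated-group measurement divided by that of the vehicle-treated control group.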

Where [1] appears, read: dose: 12.5 mg/kg/injection, schedule: Q01DX009 (ip), vehicle: saline.
[2] abbreviates: dose: 50.0 mg/kg/injection, schedule: Q01DX009 (ip), vehicle: saline with Tween-80.
Setting [3] is: dose: 100.0 mg/kg/injection, schedule: Q01DX009 (ip), vehicle: saline with Tween-80.
The mark [4] stands for this setting: dose: 50.0 mg/kg/injection, schedule: Q01DX005 (ip), vehicle: saline with Tween-80.
Where [5] appears, read: dose: 100.0 mg/kg/injection, schedule: Q01DX005 (ip), vehicle: saline with Tween-80.
The mark [6] stands for this setting: dose: 200.0 mg/kg/injection, schedule: Q01DX005 (ip), vehicle: saline with Tween-80.
Where [7] appears, read: dose: 50.0 mg/kg/injection, schedule: Q01DX005 (ip), vehicle: Klucel (hydroxypropylcellulose) (HPC).
[8] abbreviates: dose: 100.0 mg/kg/injection, schedule: Q01DX005 (ip), vehicle: Klucel (hydroxypropylcellulose) (HPC).
[9] abbreviates: dose: 200.0 mg/kg/injection, schedule: Q01DX009 (ip), vehicle: saline with Tween-80.
Where [10] appears, read: dose: 100.0 mg/kg/injection, schedule: Q04DX003 (ip), vehicle: saline with Tween-80.
[11] abbreviates: dose: 200.0 mg/kg/injection, schedule: Q04DX003 (ip), vehicle: saline with Tween-80.
Where [12] appears, read: dose: 400.0 mg/kg/injection, schedule: Q04DX003 (ip), vehicle: saline with Tween-80.
Setting [13] is: dose: 60.0 mg/kg/injection, schedule: Q01DX005 (ip), vehicle: saline.
[14] abbreviates: dose: 120.0 mg/kg/injection, schedule: Q01DX005 (ip), vehicle: saline.
The mark [15] stands for this setting: dose: 240.0 mg/kg/injection, schedule: Q01DX005 (ip), vehicle: saline.

Each structure is given as a SMILES string. Values joined by “and” are separate entries in the source; they are usually repeats but may differ in a detail not shown here. Equal values may be shown once. Inconclusive results and toxic doses are left out. Peptide text beside a SMILES is read from it.

On to `CCCCS(=O)(=O)N/N=C/C(=O)O`, for which the T/C reads like this: (dose: 6.25 mg/kg/injection, schedule: Q01DX009 (ip), vehicle: water) 119 % of control; (dose: 12.5 mg/kg/injection, schedule: Q01DX009 (ip), vehicle: water) 124 % of control; (dose: 50.0 mg/kg/injection, schedule: Q01DX009 (ip), vehicle: water) 162 % of control; (dose: 100.0 mg/kg/injection, schedule: Q01DX009 (ip), vehicle: water) 173 % of control.

For the compound `Cn1c2ccc([N+](=O)[O-])cc2c(=O)c2c(O)cc3c(c21)C=CC(C)(C)O3`, the T/C (dose: 25.0 mg/kg/injection, schedule: Q01DX001 (ip), vehicle: saline with Tween-80) was 97 % of control; the T/C (dose: 50.0 mg/kg/injection, schedule: Q01DX001 (ip), vehicle: saline with Tween-80) was 97 % of control; the T/C (dose: 100.0 mg/kg/injection, schedule: Q01DX001 (ip), vehicle: saline with Tween-80) was 89 % of control and 95 % of control.

With `C#CCN(C)Cc1cc(OC)c(OC)c(OC)c1`, the T/C by setting is: under setting [1], 102 % of control; (dose: 25.0 mg/kg/injection, schedule: Q01DX009 (ip), vehicle: saline) 94 % of control; (dose: 50.0 mg/kg/injection, schedule: Q01DX009 (ip), vehicle: saline) 102 % of control and 86 % of control; (dose: 100.0 mg/kg/injection, schedule: Q01DX009 (ip), vehicle: saline) 95 % of control and 96 % of control.

As for `CC(C)(c1ccc(OCOC(=O)NN)cc1)c1ccc(OCOC(=O)NN)cc1`, the T/C under setting [2] is 95 % of control and the T/C under setting [3] was 102 % of control.

Take `CCOC(=O)C(=[N+]=[N-])C(=O)OCC12CCC=C1CC1(CC2)OCCO1` (configuration not stated): the T/C reads like this: under setting [4], 101 % of control; under setting [5], 108 % of control; under setting [6], 102 % of control.

For `O=C(CCOCCCOCCC(=O)OCCCBr)OCCCBr`, the T/C was 102 % of control under setting [7]; 98 % of control under setting [8]; 98 % of control (dose: 200.0 mg/kg/injection, schedule: Q01DX005 (ip), vehicle: Klucel (hydroxypropylcellulose) (HPC)).

Consider `CCCCCCC(=O)/C=C/c1ccccc1OC(=O)c1ccc(Cl)cc1`, for which the T/C is, setting by setting: (dose: 25.0 mg/kg/injection, schedule: Q01DX009 (ip), vehicle: saline with Tween-80) 101 % of control; under setting [2], 88 % of control and 90 % of control; under setting [3], 95 % of control; under setting [9], 94 % of control.

With `COc1ccc(C(C)c2cc3c(cc2OCC(=O)O)OCO3)cc1` (configuration not stated), the T/C is 105 % of control under setting [4], 88 % of control under setting [5] and 90 % of control under setting [6].

Turning to `CCCNc1ccnc(F)n1`, the T/C is, setting by setting: (dose: 12.5 mg/kg/injection, schedule: Q01DX005 (ip), vehicle: Klucel (hydroxypropylcellulose) (HPC)) 100 % of control; (dose: 25.0 mg/kg/injection, schedule: Q01DX005 (ip), vehicle: Klucel (hydroxypropylcellulose) (HPC)) 102 % of control; under setting [7], 106 % of control; under setting [8], 105 % of control.

On to `CCCCc1ccc(Nc2ccc(Nc3ccc(CCCC)cc3S(=O)(=O)O)c3c2C(=O)c2ccccc2C3=O)c(S(=O)(=O)O)c1`, for which the T/C under setting [2] was 94 % of control, the T/C under setting [3] is 90 % of control and the T/C under setting [9] is 94 % of control.

For the compound `CN(C)CCNC1=C(Cl)C(=O)c2ccccc2C1=O`, the T/C was 95 % of control (dose: 3.13 mg/kg/injection, schedule: Q01DX009 (ip), vehicle: saline); 94 % of control (dose: 6.25 mg/kg/injection, schedule: Q01DX009 (ip), vehicle: saline); 97 % of control under setting [1].

Regarding `O=C1C=CC(=O)N1c1ccc(Cl)cc1Cl`, the T/C was 105 % of control (dose: 3.12 mg/kg/injection, schedule: Q04DX003 (ip), vehicle: saline with Tween-80); 109 % of control (dose: 6.25 mg/kg/injection, schedule: Q04DX003 (ip), vehicle: saline with Tween-80); 96 % of control (dose: 12.5 mg/kg/injection, schedule: Q04DX003 (ip), vehicle: saline with Tween-80).

`Cc1cccc2nnc(CCCc3nnc4cccc(C)n34)n12`: the T/C is 98 % of control under setting [10], 97 % of control under setting [11] and 96 % of control under setting [12].

For the compound `CCN(CC)CCN1c2ccc(C)cc2Sc2ccc3ccccc3c21`, the T/C by setting is: (dose: 50.0 mg/kg/injection, schedule: Q01DX005 (ip), vehicle: saline + Tween-80 + alcohol) 112 % of control; (dose: 100.0 mg/kg/injection, schedule: Q01DX005 (ip), vehicle: saline + Tween-80 + alcohol) 102 % of control; (dose: 200.0 mg/kg/injection, schedule: Q01DX005 (ip), vehicle: saline + Tween-80 + alcohol) 114 % of control.

As to `CC(C)C(N)C(=O)NCC(=O)NC(CO)C(=O)NC(CCC(=O)O)C(=O)O` (configuration not stated) (H-VGSE-OH; configuration not given here), the T/C by setting is: (dose: 10.0 mg/kg/injection, schedule: Q01DX005 (ip), vehicle: water) 100 % of control; (dose: 20.0 mg/kg/injection, schedule: Q01DX005 (ip), vehicle: water) 102 % of control; (dose: 40.0 mg/kg/injection, schedule: Q01DX005 (ip), vehicle: water) 100 % of control; (dose: 80.0 mg/kg/injection, schedule: Q01DX005 (ip), vehicle: water) 97 % of control; (dose: 160.0 mg/kg/injection, schedule: Q01DX005 (ip), vehicle: water) 104 % of control.

`OCCC(CCN1CCOCC1)(c1ccccc1)C1(O)CCCC1` (configuration not stated): the T/C was 95 % of control under setting [13], 98 % of control under setting [14] and 92 % of control under setting [15].

For `COC1OC(COC(C)=O)C(N(C)C(C)=O)C1OC(C)=O` (configuration not stated), the T/C was 103 % of control under setting [13], 96 % of control under setting [14] and 104 % of control under setting [15].

For `COc1ccc(CN2COc3c(ccc4cccnc34)C2)cc1`, the T/C reads like this: (dose: 100.0 mg/kg/injection, schedule: Q04DX003 (ip), vehicle: Klucel (hydroxypropylcellulose) (HPC)) 93 % of control; (dose: 200.0 mg/kg/injection, schedule: Q04DX003 (ip), vehicle: Klucel (hydroxypropylcellulose) (HPC)) 93 % of control; (dose: 400.0 mg/kg/injection, schedule: Q04DX003 (ip), vehicle: Klucel (hydroxypropylcellulose) (HPC)) 111 % of control.

As for `O=S(=O)(Nc1ccc(O)cc1)c1ccccc1`, the T/C (dose: 25.0 mg/kg/injection, schedule: Q04DX003 (ip), vehicle: saline with Tween-80) is 110 % of control; the T/C (dose: 50.0 mg/kg/injection, schedule: Q04DX003 (ip), vehicle: saline with Tween-80) was 100 % of control; the T/C under setting [3] was 108 % of control; the T/C under setting [10] is 107 % of control; the T/C under setting [9] is 100 % of control; the T/C under setting [11] was 100 % of control. The T/C runs as follows: (dose: 400.0 mg/kg/injection, schedule: Q01DX009 (ip), vehicle: saline with Tween-80) 87 % of control; under setting [12], 100 % of control.

The values above are taken from PubChem BioAssay AID330 (DTP/NCI, 2004).
